Test results as given in patent US11590129B2, “Combination therapy with an antitumor alkaloid” (PHARMA MAR, S.A., priority 2010, dated 2023).
Like-named read-outs stand apart in the source and are kept apart here.

How the values were obtained:
[1] = tested on: A549 human lung carcinoma cell line; assay: MTT cytotoxicity assay in A549 cells: IC50 of single agents and combinations with PM01183; type: cell-based
Protocol: (§1) Additional serial dilutions were prepared in serum-free culture medium to achieve a final 4× concentration. Aliquots of 50 μL of each diluted compound were added per well.
A549 was the human lung carcinoma cell line selected for this assay.
(§2) a. […] Briefly, cells were harvested and seeded in 96 well microtiter plates at a density of 5,000 cells in 150 μL of culture medium and incubated for 24 hours in drug-free medium before treatment with vehicle alone or test compounds for 72 h.
(§3) The cytotoxic effect was measured by the MTT reduction assay, in which 3-(4,5-Dimethylthiazol-2-yl)-2,5-diphenyltetrazolium bromide, a tetrazole, which is reduced to purple formazan in the mitochondria of living cells, was used. MTT (50 μL of 1 mg/mL stock solution) was added to the wells and incubated for 8 hours at 37° C. until formazan crystals were formed. After gently removing the culture medium, DMSO was added to dissolve the insoluble purple formazan product into a colored solution. […] Results were expressed as percentage of control cell growth.
(§4) b. In a second set of assays, A549 human tumor cells were incubated with PM01183 in combination with each of the agents mentioned above.
(§5) As a visual aid, response values were plotted on a scatter plot with dose ratios given on the x-axis and % response values on the y-axis. […] In cases where response values at the two endpoints were approximately equivalent, points lying above or below this predicted line of additivity could be interpreted as representing antagonistic or synergistic drug interaction, respectively.

[2] = tested on: A673 human rhabdomyosarcoma cell line; assay: cells
Protocol: as §2, §3, §4, §5, §1
A673 was the human rhabdomyosarcoma cell line selected for this assay.

[3] = tested on: SK-MEL-2 human melanoma cell line; assay: cells
Protocol: as §2, §3, §4, §5, §1
SK-MEL-2 was the human melanoma cell line selected for this assay.

[4] = tested on: PC-3 human prostate cancer cell line; assay: cells
Protocol: as §2, §3, §4, §5, §1
PC-3 was the human prostate adenocarcinome cell line selected for this assay.

[5] = tested on: IGROV-1 human ovarian adenocarcinoma cell line; assay: cells
Protocol: as §2, §3, §4, §5, §1
IGROV-1 was the human ovarian adenocarcinoma cell line selected for this assay.

[6] = tested on: MDA-MB-231 human breast adenocarcinoma cell line; assay: cells
Protocol: as §2, §3, §4, §5, §1

[7] = tested on: RXF-393 human kidney carcinoma cell line; assay: cells
Protocol: as §2, §3, §4, §5, §1

[8] = tested on: HT-29 human colon adenocarcinoma cell line; assay: cells
Protocol: as §2, §3, §4, §5, §1
HT-29 was the human colon adenocarcinoma cell line selected for this assay.

[9] = tested on: PANC-1 human pancreatic carcinoma cell line; assay: cells
Protocol: as §2, §3, §4, §5, §1
PANC-1 was the human pancreatic carcinoma cell line selected for this assay.

[10] = tested on: HGC-27 human gastric carcinoma cell line; assay: cells
Protocol: as §2, §3, §4, §5, §1
HGC-27 was the human gastric carcinoma cell line selected for this assay.

[11] = tested on: HepG2 human hepatocellular liver carcinoma cell line; assay: MTT cytotoxicity assay in HepG2 cells: IC50 of single agents and combinations with PM01183; type: cell-based
Protocol: as §2, §3, §4, §5, §1
HepG2 was the human hepatocellular liver carcinoma cell line selected for this assay.

[12] = tested on: U87-MG human glioblastoma cell line; assay: cells
Protocol: as §2, §3, §4, §5, §1
U87-MG was the human glioblastoma cell line selected for this assay.

[13] = tested on: HGC-27 tumors; assay: Human gastric tumor xenografts (HGC-27) in athymic nude mice, tumor volume % T/C; type: in vivo
Protocol: Female athymic nude mice (Harlan Laboratories Models, S.L. (Barcelona, Spain) were utilized for all experiments. Animals were housed in individually ventilated cages, up to ten per cage in a 12-hour light-dark cycle at 21-23° C. and 40-60% humidity. The mice were allowed free access to irradiated standard rodent diet and sterilized water. Animals were acclimated for at least 5 days prior to tumor implantation with a tumor cell suspension.
HGC-27 cells were grown at 37° C. with 5% CO2 in Iscove's modified Dulbeco's medium (IDMD).
PM01183 was provided in the form of vials of lyophilized PM01183 cake which was reconstituted with water for infusion to a concentration of 0.2 mg/mL. The PM01183 stock solution was further diluted in 5% glucose solution for injection to the dosing formulation concentrations. Cisplatin and 5-fluorouracil were provided as solutions prepared by diluting the product with 0.9% saline solution for injection to the target final concentration.
Dose level groups were administered either as single agents or in combination.
Comparison of the median tumor volume in the treatment groups (T) to the median tumor volume in the control group (T/C×100%) was used for evaluation of the antitumor efficacy.

[14] = 5-fluorouracil 12.5 mg/kg iv days 0,7
[15] = 5-fluorouracil 37.5 mg/kg iv days 0,7
[16] = 5-fluorouracil 50.0 mg/kg iv days 0,7

How did the IC50 ([1]; read-out: IC50) turn out when CO[C@@]12[C@H](COC(N)=O)C3=C(C(=O)C(C)=C(N)C3=O)N1C[C@@H]1N[C@@H]12 [Mitomycin C, mitomycin C] was run?
Its IC50 is 249 µM.

What about the IC50 [2] of the same compound?
The IC50 was 2.99 µM.

What about the IC50 [3] of the same compound?
Its IC50 is 0.9 µM.

And the IC50 [4]?
The IC50 was 10 µM.

What about the IC50 [5] of the same compound?
Its IC50 is 3 µM.

What about the IC50 [6] of the same compound?
Its IC50 is 2 µM.

What about the IC50 [7] of the same compound?
Its IC50 is 9 µM.

What about the IC50 [8] of the same compound?
Its IC50 is 2 µM.

With CC(C)C[C@H](NC(=O)[C@H](Cc1ccccc1)NC(=O)c1cnccn1)B(O)O [Bortezomib, bortezomib] as the compound, how does the IC50 ([1]; Homo sapiens, A549, 72 h) read?
The IC50 was 0.0031 µM.

What about the IC50 ([4]; Homo sapiens, PC-3, 72 h) of the same compound?
The IC50 was 0.8 µM.

And the IC50 ([9]; Homo sapiens, PANC-1, 72 h)?
Its IC50 is 0.416 µM.

What about the IC50 ([10]; Homo sapiens, HGC-27, 72 h) of the same compound?
Its IC50 is 0.0056 µM.

And the IC50 ([11]; Homo sapiens, HepG2, 72 h)?
The IC50 was 0.39 µM.

What about the IC50 ([8]; Homo sapiens, HT-29, 72 h) of the same compound?
Its IC50 is 0.00615 µM.

And the IC50 ([12]; Homo sapiens, U-87 MG, 72 h)?
The IC50 was 0.4 µM.

Which IC50 ([1]; read-out: IC50) does the source give for O=C1[O][Pt]2([NH][C@@H]3CCCC[C@H]3[NH]2)[O]C1=O [Oxaliplatin, oxaliplatin] here?
Its IC50 is 900 µM.

And the IC50 [2]?
The IC50 was 78 µM.

And the IC50 [4]?
The IC50 was 171 µM.

And the IC50 [9]?
The IC50 was 184 µM.

What about the IC50 [10] of the same compound?
The IC50 was 106 µM.

And the IC50 [5]?
The IC50 was 8.5 µM.

And the IC50 ([11]; read-out: IC50)?
The IC50 was 28 µM.

What about the IC50 [6] of the same compound?
Its IC50 is 108 µM.

What about the IC50 [8] of the same compound?
Its IC50 is 103 µM.

What about the IC50 [12] of the same compound?
The IC50 was 190 µM.

How did the IC50 ([1]; Homo sapiens, A549, 72 h) turn out when O=c1[nH]cc(F)c(=O)[nH]1 [5-FU, 5-fluorouracil] was run?
Its IC50 is 92.3 µM.

And the IC50 ([3]; Homo sapiens, SK-MEL-2, 72 h)?
The IC50 was 700 µM.

And the IC50 ([4]; Homo sapiens, PC-3, 72 h)?
The IC50 was 1000 µM.

And the IC50 ([10]; Homo sapiens, HGC-27, 72 h)?
The IC50 was 10 µM.

What about the IC50 ([5]; Homo sapiens, IGROV-1, 72 h) of the same compound?
The IC50 was 90 µM.

And the IC50 ([11]; Homo sapiens, HepG2, 72 h)?
Its IC50 is 4.5 µM.

What about the IC50 ([6]; Homo sapiens, MDA-MB-231, 72 h) of the same compound?
Its IC50 is 90 µM.

And the IC50 ([7]; Homo sapiens, RXF 393, 72 h)?
The IC50 was 300 µM.

And the IC50 ([8]; Homo sapiens, HT-29, 72 h)?
Its IC50 is 9 µM.

What about the IC50 ([12]; Homo sapiens, U-87 MG, 72 h) of the same compound?
Its IC50 is 1000 µM.

What about the “% T/C on day 0” value [13, 14] of the same compound?
Its value is 100.7%.

And the “% T/C on day 2” value [13, 14]?
The value was 81.7%.

What about the “% T/C on day 5” value [13, 14] of the same compound?
The value was 101.3%.

And the “% T/C on day 7” value [13, 14]?
Its value is 102.8%.

What about the “% T/C on day 9” value [13, 14] of the same compound?
Its value is 98.6%.

And the “% T/C on day 12” value [13, 14]?
Its value is 90.5%.

What about the “% T/C on day 14” value [13, 14] of the same compound?
The value was 83.8%.

And the “% T/C on day 0” value [13, 15]?
The value was 99.4%.

And the “% T/C on day 2” value [13, 15]?
Its value is 86.9%.

And the “% T/C on day 5” value [13, 15]?
Its value is 86.9%.

And the “% T/C on day 7” value [13, 15]?
Its value is 78.6%.

What about the “% T/C on day 9” value [13, 15] of the same compound?
Its value is 73.2%.

And the “% T/C on day 12” value [13, 15]?
Its value is 76.7%.

What about the “% T/C on day 14” value [13, 15] of the same compound?
Its value is 83.1%.

And the “% T/C on day 0” value [13, 16]?
Its value is 100.3%.

And the “% T/C on day 2” value [13, 16]?
The value was 81.2%.

And the “% T/C on day 5” value [13, 16]?
The value was 82.3%.

And the “% T/C on day 7” value [13, 16]?
Its value is 81.1%.

What about the “% T/C on day 9” value [13, 16] of the same compound?
The value was 75.6%.

What about the “% T/C on day 12” value [13, 16] of the same compound?
The value was 69.6%.

And the “% T/C on day 14” value [13, 16]?
The value was 60.7%.
